In ChEMBL document CHEMBL4184222, “A multifaceted approach to identify non-specific enzyme inhibition: Application to Mycobacterium tuberculosis shikimate kinase” (Bioorg Med Chem Lett, 2018):
pIC50: −log10 of the molar value. ≈ marks a conversion by molar mass, not a printed value.

Columns and labels:
[1] = Aggregation property of the compound in water at pH 7 assessed as light scattering intensity counts at 100 uM in presence of Triton X-100 by dynamic light scattering method; assay type: physicochemical; details: buffer, pH 7, 100 µM
[2] = Inhibition of Mycobacterium tuberculosis shikimate kinase assessed as reduction in S3P production […] pre-incubated with 0.015 uM enzyme for 30 mins before ATP and shikimate substrate addition by LC-MS assay
[3] = Aggregation property of the compound in ammonium acetate buffer at pH 7.6 assessed as light scattering intensity counts at 100 uM in absence of Triton X-100 by dynamic light scattering method; assay type: physicochemical; details: pH 7.6, 100 µM
[4] = tested on: Mycobacterium tuberculosis; test: Inhibition of Mycobacterium tuberculosis shikimate kinase assessed as reduction in S3P production at 100 uM pre-incubated with 0.2 uM enzyme for 30 mins before ATP and shikimate substrate addition in absence of Triton X-100 by LC-MS assay
[5] = Aggregation property of the compound in ammonium acetate buffer at pH 7.6 assessed as particle size at 100 uM in presence of Triton X-100 by dynamic light scattering method; assay type: physicochemical; details: pH 7.6, 100 µM
[6] = Aggregation property of the compound in water at pH 7 assessed as particle size at 100 uM in absence of Triton X-100 by dynamic light scattering method; assay type: physicochemical; details: buffer, pH 7, 100 µM
[7] = tested on: Mycobacterium tuberculosis; test: Inhibition of Mycobacterium tuberculosis shikimate kinase assessed as reduction in S3P production at 100 uM pre-incubated with 0.2 uM enzyme for 30 mins before ATP and shikimate substrate addition in presence of Triton X-100 by LC-MS assay
[8] = tested on: Mycobacterium tuberculosis; test: Inhibition of Mycobacterium tuberculosis shikimate kinase assessed as reduction in S3P production at 100 uM pre-incubated with 0.02 uM enzyme for 30 mins before ATP and shikimate substrate addition in presence of Triton X-100 by LC-MS assay
[9] = Aggregation property of the compound in ammonium acetate buffer at pH 7.6 assessed as light scattering intensity counts at 100 uM in presence of Triton X-100 by dynamic light scattering method; assay type: physicochemical; details: pH 7.6, 100 µM
[10] = tested on: Mycobacterium tuberculosis; test: Inhibition of Mycobacterium tuberculosis shikimate kinase assessed as reduction in S3P production at 100 uM pre-incubated with 0.02 uM enzyme for 30 mins before ATP and shikimate substrate addition in absence of Triton X-100 by LC-MS assay
[11] = Aggregation property of the compound in water at pH 7 assessed as light scattering intensity counts at 100 uM in absence of Triton X-100 by dynamic light scattering method; assay type: physicochemical; details: buffer, pH 7, 100 µM
[12] = Aggregation property of the compound in water at pH 7 assessed as particle size at 100 uM in presence of Triton X-100 by dynamic light scattering method; assay type: physicochemical; details: buffer, pH 7, 100 µM
[13] = tested on: Mycobacterium tuberculosis; test: Antimycobacterial activity against Mycobacterium tuberculosis H37Rv; assay type: functional
[14] = tested on: Mycobacterium tuberculosis; test: Inhibition of Mycobacterium tuberculosis shikimate kinase assessed as reduction in S3P production at <50 uM pre-incubated for 30 mins before ATP and shikimate substrate addition by LC-MS assay
[15] = Aggregation property of the compound in ammonium acetate buffer at pH 7.6 assessed as particle size at 100 uM in absence of Triton X-100 by dynamic light scattering method; assay type: physicochemical; details: pH 7.6, 100 µM
[16] = Aggregation property of the compound in ammonium acetate buffer at pH 7.6 assessed as particle size at 100 uM in presence of Triton X-100 by transmission electron microscopy; assay type: physicochemical; details: pH 7.6, 100 µM
[17] = Aggregation property of the compound in ammonium acetate buffer at pH 7.6 assessed as particle size at 100 uM in absence of Triton X-100 by transmission electron microscopy; assay type: physicochemical; details: pH 7.6, 100 µM

Row | SMILES | Activity [1] | pIC50 [2] | Activity [3] | inhibition [4] | Activity [5] | Activity [6] | inhibition [7] | inhibition [8] | Activity [9] | inhibition [10] | Activity [11] | Activity [12] | IC90 [13] | inhibition [14] | Activity [15] | Activity [16] | Activity [17]
1 | O=C(/C=C/c1ccccc1)Nc1nnc(-c2ccc3c(c2)CCCC3)o1 | 138 kCounts | 4.23 | 310 kCounts | 0% | 390 nm | 1820 nm | 0% | 0% | 141 kCounts | 95% | 306 kCounts | 353 nm | 1.68 µg/mL (≈ 4.86 µM) | > 90% | 1820 nm | – | –
2 | O=C(Nc1nnc(-c2ccccc2Cl)o1)c1cccc(Oc2ccccc2)c1 | 170 kCounts | 4.41 | 350 kCounts | 0% | 516 nm | 2423 nm | 0% | 0% | 180 kCounts | 90% | 330 kCounts | 481 nm | 0.86 µg/mL (≈ 2.19 µM) | > 90% | 2850 nm | – | –
3 | CCc1cccc2sc(N(CCCn3ccnc3)C(=O)/C=C/c3cccs3)nc12 | 270 kCounts | – | 400 kCounts | – | 817 nm | 3823 nm | – | – | 286 kCounts | – | 380 kCounts | 908 nm | 0.83 µg/mL (≈ 1.96 µM) | > 90% | 3776 nm | – | –
4 | Cc1ccc(C)c(-c2nnc(NC(=O)c3ccc([N+](=O)[O-])s3)o2)c1 | 80 kCounts | – | 240 kCounts | – | 151 nm | 973 nm | – | – | 85 kCounts | – | 237 kCounts | 176 nm | 3.09 µg/mL (≈ 8.97 µM) | > 90% | 986 nm | – | –
5 | CSc1ccc2nc(Nc3nc4ccc(NC(C)=O)cc4s3)sc2c1 | 115 kCounts | 4.22 | 285 kCounts | 0% | 271 nm | 1438 nm | 0% | 0% | 122 kCounts | 97.4% | 270 kCounts | 275 nm | < 0.2 µg/mL | > 90% | 1531 nm | 0.03 um | 0.7 um
6 | CCOc1ccc(C(=O)Nc2nnc(-c3ccc(C)cc3C)o2)cc1 | 122 kCounts | – | 300 kCounts | – | 354 nm | 1583 nm | – | – | 123 kCounts | – | 280 kCounts | 275 nm | 1.8 µg/mL (≈ 5.34 µM) | > 90% | 1620 nm | – | –
7 | Cc1ccc(-c2nnc(NC(=O)c3ccc([N+](=O)[O-])o3)o2)c(C)c1 | 72 kCounts | 4.18 | 190 kCounts | 0% | 131 nm | 823 nm | 0% | 0% | 83 kCounts | 91.6% | 182 kCounts | 131 nm | 0.69 µg/mL (≈ 2.1 µM) | > 90% | 851 nm | – | –
8 | CCCCC(=O)Nc1nnc(-c2ccc3c(c2)CCCC3)o1 | 100 kCounts | – | 280 kCounts | – | 255 nm | 1324 nm | – | – | 131 kCounts | – | 260 kCounts | 259 nm | 3.04 µg/mL (≈ 10.2 µM) | > 90% | 1432 nm | – | –
9 | Cc1ccc(-c2nnc(NC(=O)c3ccccc3Cl)o2)c(C)c1 | 95 kCounts | – | 270 kCounts | – | 212 nm | 1301 nm | – | – | 115 kCounts | – | 255 kCounts | 203 nm | < 0.2 µg/mL | > 90% | 1321 nm | – | –
10 | CC(C)(C)C(=O)Nc1nnc(-c2ccc(Br)cc2)o1 | 92 kCounts | – | 260 kCounts | – | 201 nm | 1192 nm | – | – | 100 kCounts | – | 250 kCounts | 198 nm | < 0.2 µg/mL | > 90% | 1211 nm | – | –
11 | Cc1cc(C)c2sc(N3CCCC3)nc2c1 | 130 kCounts | – | 300 kCounts | – | 373 nm | 1762 nm | – | – | 139 kCounts | – | 290 kCounts | 343 nm | 1.75 µg/mL (≈ 7.53 µM) | > 90% | 1750 nm | – | –
12 | CCSc1ccc(C(=O)Nc2nnc(-c3ccc4c(c3)CCCC4)o2)cc1 | 152 kCounts | – | 340 kCounts | – | 480 nm | 1921 nm | – | – | 158 kCounts | – | 330 kCounts | 410 nm | 1.93 µg/mL (≈ 5.09 µM) | > 90% | 2005 nm | – | –
13 | O=C(c1cccs1)N(CCCn1ccnc1)c1nc2c(F)cc(F)cc2s1 | 142 kCounts | – | 321 kCounts | – | 470 nm | 1852 nm | – | – | 150 kCounts | – | 300 kCounts | 398 nm | 2.38 µg/mL (≈ 5.88 µM) | > 90% | 1934 nm | – | –
